This passage reports EC50 results from patent US10669258B2, “3-sulfonyl-5-aminopyridine-2,4-diol APJ agonists” (BRISTOL-MYERS SQUIBB COMPANY, priority 2016, dated 2020).

One assay has as its target T1, human APJ receptor (Homo sapiens, UniProt P35414).
T1 construct: expressed in transfected cells; host or cells: HEK293
T1 sequence (P35414 1-380): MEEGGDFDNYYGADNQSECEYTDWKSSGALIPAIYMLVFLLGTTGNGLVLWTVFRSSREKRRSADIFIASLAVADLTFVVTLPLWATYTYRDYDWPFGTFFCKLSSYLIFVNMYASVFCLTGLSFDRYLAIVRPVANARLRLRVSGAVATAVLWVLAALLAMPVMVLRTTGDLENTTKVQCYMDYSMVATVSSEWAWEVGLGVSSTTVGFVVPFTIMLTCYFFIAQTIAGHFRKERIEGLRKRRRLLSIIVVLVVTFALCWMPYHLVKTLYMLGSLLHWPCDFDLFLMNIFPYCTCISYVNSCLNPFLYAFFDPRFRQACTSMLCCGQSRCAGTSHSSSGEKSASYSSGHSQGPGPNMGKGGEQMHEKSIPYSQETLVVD
Put plainly: Intracellular cAMP accumulation assay (APJ hcAMP, HTRF). It is filed as cell-based. The conditions noted are these: HEK293 cells stably expressing human APJ receptor; inhibition of forskolin-mediated cAMP production; Table 1; read-out: hAPJ cAMP EC50 Potency range. As for the experimental part:
Intracellular cAMP Accumulation Assay
HEK293 cells stably expressing human APJ receptor were used to assess the activity of compounds. Cultured cells were detached and resuspended in the cAMP Homogeneous Time-Resolved Fluorescence (HTRF) assay buffer (Cisbio cat; #62AM4PEJ). The assay was performed in 384-well assay plates (Perkin-Elmer; cat #6008289) according to assay protocol provided by the manufacturer. Serial dilutions of a compound together with assay buffer containing […] IBMX and 2 μM forskolin were added to each well containing 5,000 cells and incubated for 30 minutes at room temperature. Subsequently, cAMP D2 reagent was added in the lysis buffer followed by the EuK antibody (Cisbio; cat #62AM4PEJ) and incubated for 60 min. The fluorescence emission ratio was measured using fluorometer. The intracellular cAMP concentrations (compound-stimulated inhibition of forskolin-mediated cAMP production) were calculated by extrapolation from a standard curve using known cAMP concentrations. The EC50 values were obtained by fitting the data to a sigmoidal concentration-response curve with variable slope. The maximal achievable inhibition of forskolin-induced cAMP levels (Ymax) for each compound was expressed as relative percentage of inhibition attained using pyroglutamated apelin-13 ((Pyr1)apelin-13) peptide, which was set to 100%.
The examples disclosed below were tested in the APJ in vitro assays described above and were found having human APJ cyclic AMP (hcAMP) activity. The EC50 value of each compound is presented at the end of the example description.
The biological activity of the exemplified compounds of this invention determined by the assay described above is shown at the end of each example.
(cAMP levels reflect the balance of adenylyl cyclase and phosphodiesterase activity.)
By EC50 is commonly meant the concentration giving half of the maximal effect. Take `CCCCc1nc(O)c(S(=O)(=O)c2ccc(-c3ccncc3C)cc2)c(O)c1N(C)c1cccc(F)c1` [Example 104, 6-butyl-5-((3-fluorophenyl)(methyl)amino)-3-((4-(3-methylpyridin-4-yl)phenyl)sulfonyl)pyridine-2,4-diol]: the EC50 was 0.01 to 10 nM.
Same read-out and setting: the result for `CCN(c1ccccc1)c1c(-c2cnc(C)s2)nc(O)c(S(=O)(=O)c2ccc(-c3ccccc3C(=O)NC3CC3)cc2)c1O` [Example 189, N-cyclopropyl-4′-((5-(ethyl(phenyl)amino)-2,4-dihydroxy-6-(2-methylthiazol-5-yl)pyridin-3-yl)sulfonyl)-[1,1′-biphenyl]-2-carboxamide] reads 0.01 to 10 nM.
Same read-out and setting: the result for `CCCCc1nc(O)c(S(=O)(=O)c2ccc(-c3ccncc3C)cc2)c(O)c1N(CC)c1ccccc1` [Example 078, 6-butyl-5-(ethyl(phenyl)amino)-3-((4-(3-methylpyridin-4-yl)phenyl)sulfonyl)pyridine-2,4-diol] reads 0.01 to 10 nM.
The same measure, in the same setting: the result for `CCCCc1nc(O)c(S(=O)(=O)c2ccc(-c3ccccc3C(=O)N(C)C)cc2)c(O)c1N(C)c1ccccc1F` [Example 171, 4′-((6-butyl-5-((2-fluorophenyl)(methyl)a-mino)-2,4-dihydroxypyridin-3-yl)sulfonyl)-N,N-dimethyl-[1,1′-biphenyl]-2-carboxamide] reads 0.01 to 10 nM; that for `Cc1nc(F)ccc1-c1ccc(S(=O)(=O)c2c(O)nc(-c3ccn(C)n3)c(N(c3ccccc3)C(C)C)c2O)cc1` [Example 157, 3-((4-(6-fluoro-2-methylpyridin-3-yl)phenyl)sulfonyl)-5-(isopropyl(phen-yl)amino)-6-(1-methyl-1H-pyrazol-3-yl)pyridine-2,4-diol], 0.01 to 10 nM.
As for `CC(C)N(c1ccccc1)c1c(-c2ccn(C)n2)nc(O)c(S(=O)(=O)c2ccc(-c3ccccc3C(=O)NC3CC3)cc2)c1O` [Example 162, N-cyclopropyl-4′-((2,4-dihydroxy-5-(isopropyl(phen-yl)amino)-6-(1-methyl-1H-pyrazol-3-yl)pyridin-3-y)sulfonyl)-[1,1′-biphenyl]-2-carboxamide], the concentration for a half-maximal effect (EC50) was in the range of 0.01 to 10 nM.
Same read-out and setting: the result for `CCCCc1nc(O)c(S(=O)(=O)c2ccc(-c3ccncc3C)cc2)c(O)c1N(C)c1ccccc1C` [Example 203, 6-butyl-5-(methyl(o-tolyl)amino)-3-((4-(3-methypyridin-4-yl)phenyl)sulfonyl)pyri-dine-2,4-diol] reads 0.01 to 10 nM; that for `CCCCc1nc(O)c(S(=O)(=O)c2ccc(-c3ccccc3C(N)=O)cc2)c(O)c1N(CC)c1cc(C)cc(C)c1` [Example 143, 4′-((6-butyl-5-((3,5-dimethylphenyl)(ethyl)amino)-2,4-dihydroxypyridin-3-yl)sulfonyl)-[1,1′-biphenyl]-2-carboxamide], 0.01 to 10 nM; that for `CCCCc1nc(O)c(S(=O)(=O)c2ccc(-c3ccncc3C)cc2)c(O)c1N(C)c1cccc(OC)c1` [Example 031, 6-butyl-5-((3-methoxyphenyl)(methyl)amino)-3-((4-(3-methylpyridin-4-yl)phenyl)sulfonyl)pyridine-2,4-diol], 10 to 100 nM.
On the same count and under the same terms, as for `CCCCc1nc(O)c(S(=O)(=O)c2ccc(-c3ccc(F)nc3C)cc2)c(O)c1N1CCCCc2ccccc21` [Example 177, 6-butyl-3-((4-(6-fluoro-2-methylpyridin-3-yl)phenyl)sulfonyl)-5-(2,3,4,5-tetrahydro-1H-benzo[b]azepin-1-yl)pyridine-2,4-diol], the figure is 10 to 100 nM; as for `CCCCc1nc(O)c(S(=O)(=O)c2ccc(-c3ccccc3C(N)=O)cc2)c(O)c1N(CC)c1ccccc1` [Example 085, 4′-((6-butyl-5-(ethyl(phenyl)amino)-2,4-dihydroxypyridin-3-yl)sulfonyl)-[1,1′-biphenyl]-2-carboxamide], 0.01 to 10 nM; as for `CCCCc1nc(O)c(S(=O)(=O)c2ccc(-c3ccncc3C)cc2)c(O)c1N(C)c1ccc(C)cc1` [Example 094, 6-butyl-5-(methyl(p-tolyl)amino)-3-((4-(3-methylpyridin-4-yl)phenyl)sulfonyl)pyridine-2,4-diol], 0.01 to 10 nM.
Turning to `CCN(c1ccccc1)c1c(-c2cnc(C)s2)nc(O)c(S(=O)(=O)c2ccc(-c3ccc(F)nc3C)cc2)c1O` [Example 190, 5-(ethyl(phenyl)amino)-3-((4-(6-fluoro-2-methylpyridin-3-yl)phenyl)sulfonyl)-6-(2-methylthiazol-5-yl)pyridine-2,4-diol], the EC50 was 0.01 to 10 nM.
On to `CCN(c1ccccc1)c1c(-c2cnn(C)c2)nc(O)c(S(=O)(=O)c2ccc(-c3ccc(F)cc3C(N)=O)cc2)c1O` [Example 155, 4′-((5-(ethyl(phenyl)amino)-2,4-dihydroxy-6-(1-methyl-1H-pyrazol-4-yl)pyridin-3-yl)sulfonyl)-4-fluoro-[1,1′-biphenyl]-2-carboxamide], for which the 50% effective concentration (EC50) is 0.01 to 10 nM.
Same read-out and setting: the result for `CCCCc1nc(O)c(S(=O)(=O)c2ccc(-c3ccnc(F)c3C)cc2)c(O)c1N1CCCOc2ccccc21` [Example 127, 6-butyl-5-(3,4-dihydrobenzo[b][1,4]oxazepin-5(2H)-yl)-3-((4-(2-fluoro-3-methylpyridin-4-yl)phenyl)sulfonyl)pyridine-2,4-diol] reads 0.01 to 10 nM; that for `CCN(c1cccc(C#N)c1)c1c(-c2ccn(C)n2)nc(O)c(S(=O)(=O)c2ccc(-c3ccccc3C(N)=O)cc2)c1O` [Example 216, 4′-((5-((3-cyanophenyl)(ethyl)ami-no)-2,4-dihydroxy-6-(1-methyl-1H-pyrazol-3-yl)pyridin-3-yl)sulfonyl)-[1,1′-biphenyl]-2-carboxamide], 0.01 to 10 nM; that for `CCCCc1nc(O)c(S(=O)(=O)c2ccc(-c3ccc(F)nc3C)cc2)c(O)c1N(C)c1ccccc1F` [Example 118, 6-butyl-3-((4-(6-fluoro-2-methylpyridin-3-yl)phenyl)sulfonyl)-5-((2-fluorophenyl)(methyl)amino)pyridine-2,4-diol], 0.01 to 10 nM.
Take `CCN(c1ccccc1)c1c(CC2CC2)nc(O)c(S(=O)(=O)c2ccc(-c3ccccc3C(=O)NC)cc2)c1O` [Example 055, 4′-((6-(cyclopropylmethyl)-5-(ethyl(phenyl)amino)-2,4-dihydroxypyridin-3-yl)sulfonyl)-N-methyl-[1,1′-biphenyl]-2-carboxamide]: the concentration for a half-maximal effect (EC50) was 0.01 to 10 nM.

The same assay, now with this note: HEK293 cells stably expressing human APJ receptor; inhibition of forskolin-mediated cAMP production; Table 2; read-out: hAPJ cAMP EC50 Potency range.
For `CCN(c1ccccc1)c1c(-c2ccn(C)n2)nc(O)c(C(=O)N2CCC(c3ccccc3F)C2)c1O` (stereo not shown) [Example 202, (5-(ethyl(phenyl)amino)-2,4-dihydroxy-6-(1-methyl-1H-pyrazol-3-yl)pyridin-3-yl)(3-(2-fluorophenyl)pyrrolidin-1-yl)methanone], the EC50 is 0.01 to 10 nM.

The assay is the same for the next values; noted with them: hAPJ cAMP EC50 Potency range, HEK293 cells stably expressing human APJ receptor; inhibition of forskolin-mediated cAMP production; Table 1.
Take `CCCCc1nc(O)c(C(=O)N2CC[C@@H](c3ccccc3)C2)c(O)c1N1CCCc2ccccc21` [Example 019, (S)-(6-butyl-5-(3,4-dihydroquinolin-1(2H)-yl)-2,4-dihydroxypyridin-3-yl)(3-phenylpyrrolidin-1-yl)methanone]: the EC50 lay in the range of 10 to 100 nM.
Molecule `CCCCc1nc(O)c(C(=O)N2CC[C@@H](c3ccccc3)C2)c(O)c1N(C)c1ccc(OC)cc1` [Example 036, (S)-(6-butyl-2,4-dihydroxy-5-((4-methoxyphenyl)(methyl)amino)pyridin-3-yl)(3-phenylpyrrolidin-1-yl)methanone] yielded an EC50 of 10 to 100 nM.
The molecule `CCCCc1nc(O)c(C(=O)N2CC[C@H](c3ccccc3)C2)c(O)c1N(CC)c1ccccc1` [Example 066, (R)-(6-butyl-5-(ethyl(phenyl)amino)-2,4-dihydroxypyridin-3-yl)(3-phenylpyrrolidin-1-yl)methanone] gave a 50% effective concentration (EC50) of 10 to 100 nM.
